Legend:
Format in all cases: cell-based, human
[1] = system: E-selectin; assay: TNF-α-induced E-selectin cell surface expression in HMVEC, flow cytometry; conditions: for time of maximal inhibition of E-selectin induction: following antisense treatment
Experimental: (§1) Human dermal microvascular cells (HMVEC-d; Clonetics, San Diego, Calif.) were cultivated in endothelial basal media (EBM, Clonetics) supplemented with 10% fetal bovine serum (HyClone, Logan, Utah). Cells were grown in 100 mm petri dishes until 70-80% confluent, then washed with PBS and OPTI-MEM (Life Technologies, Inc., Gaithersburg, Md.). The cells were then incubated in the presence of OPTI-MEM and […] LIPOFECTIN (a 1:1 (w/w) liposome formulation of the cationic lipid N-[1-(2,3-dioleyloxy)propyl]-n,n,n-trimethylammonium chloride (DOTMA), and dioleoyl phosphotidylethanolamine (DOPE) in membrane filtered water (Life Technologies, Gaithersburg, Md.), per 100 nM of oligonucleotide followed by addition of oligonucleotide at the appropriate concentrations.
(§2) The effect of c-raf and Ha-ras antisense oligonucleotide treatment on the induction of E-selectin by TNF-α was examined. HMVEC cells were treated with either the c-raf or Ha-ras antisense compound under dose-response conditions or over time at a single dose level followed by stimulation of E-selectin expression by TNF-α for 5 hours. The cell surface expression of E-selectin was determined by flow cytometry analysis. Following oligonucleotide treatment, cells were detached from the plates and analyzed for surface expression of cell adhesion molecules using a Becton Dickinson (San Jose, Calif.) FACScan. TNF-α and FITC conjugated antibody for E-selectin were obtained from R & D Systems (Minneapolis, Minn.). PE-conjugated antibody for ICAM-1 was obtained from Pharmingen (San Diego, Calif.). VCAM-1 antibody was obtained from Santa Cruz Biotechnology, Santa Cruz, Calif. Cell surface expression was calculated using the mean value of fluorescence intensity using 3,000-5,000 cells stained with the appropriate antibody for each sample and time point. Results are expressed as percentage of control (cell surface expression induced by TNF-α in cells that were not treated with oligonucleotides) based upon mean fluorescence intensity.
The effects of c-raf, Ha-ras, and a E-selectin antisense oligonucleotide on TNF-α-induced E-selectin cell surface expression under kinetic conditions were examined. […] To test this, cells were treated, separately, with antisense oligonucleotides to E-selectin, ICAM-1 and VCAM-1 and allowed to recover prior to TNF-α treatment. […] E-selectin cell surface expression was measured by flow cytometry analysis after 5 hours of TNF-A treatment.

[2] = system: E-selectin mRNA; assay: TNF-α-induced E-selectin mRNA, Northern blot; conditions: 48 hrs recovery, TNF-α two to three hours before RNA analysis
Experimental: (§3) For determination of mRNA levels by Northern blot, total RNA was prepared from cells by the guanidinium isothiocyanate procedure or by the Qiagen RNAEASY method (Qiagen, Santa Clarita, Calif.) at the indicated times after initiation of oligonucleotide treatment. Northern blot analysis was performed as described in Current Protocols in Molecular Biology (Ausubel, F. M., et al., (eds), 1987, Greene Publishing Assoc. and Wiley Interscience, New York). A glyceraldehyde 3-phosphate dehydrogenase (G3PDH) probe was purchased from Clontech (Palo Alto, Calif., Catalog Number 9805-1). RNA was quantified and normalized to G3PDH mRNA levels using a Molecular Dynamic PHOSPHORIMAGER (Sunnyvale, Calif.).
(§4) Northern blot analysis was carried out to examine whether c-raf and Ha-ras antisense oligonucleotides inhibit the induction of cell adhesion molecules at the transcriptional level. Cells were treated with c-raf (ISIS 12854, SEQ ID NO. 2) or Ha-ras (ISIS 15168, SEQ ID NO. 4) antisense oligonucleotides and allowed to recover for 48 hrs. TNF-α was added two to three hours prior to RNA analysis and Northern blotting was performed with probes specific for E-selectin, ICAM-1, and VCAM-1. The probe for E-selectin was obtained by PCR amplification using primers directed to HUMELAM1A (Genbank Accession No. M24736; SEQ ID NO. 18).

[3] = system: VCAM-1; assay: TNF-α-induced VCAM-1 cell surface expression in HMVEC, flow cytometry; conditions: for Maximum inhibition of induction of VCAM-1 by TNF-α: dose response
Experimental: as §1
as §2, with “intensity. Basal expression of E-selectin and VCAM-1 is undetectable in the absence of TNF-α whereas a low level of basal expression is detectable for ICAM-1.” for “intensity.”
(§5) TNF-α induction of ICAM-1 and VCAM-1 in cells treated with c-raf and Ha-ras antisense oligonucleotides was also examined to further define the roles of c-raf and Ha-ras in cytokine signaling. Oligonucleotides were tested, using flow cytometry analysis, as described in Example 4. Results are shown in Table 6 (ICAM-1) and Table 7 (VCAM-1).

[4] = system: ICAM-1 mRNA; assay: TNF-α-induced ICAM-1 mRNA, Northern blot; conditions: 48 hrs recovery, TNF-α two to three hours before RNA analysis
Experimental: as §3, §4

[5] = system: ICAM-1; assay: TNF-α-induced ICAM-1 cell surface expression in HMVEC, flow cytometry; conditions: for maximal inhibition of induction of ICAM-1 by TNF-α: dose response
Experimental: as §1
as §2, with “intensity. Basal expression of E-selectin and VCAM-1 is undetectable in the absence of TNF-α whereas a low level of basal expression is detectable for ICAM-1.” for “intensity.”
as §5

[6] = system: VCAM-1 mRNA; assay: TNF-α-induced VCAM-1 mRNA, Northern blot; conditions: 48 hrs recovery, TNF-α two to three hours before RNA analysis
Experimental: as §3, §4

[7] = 25 nM, TNF-α for 5 hours, % of control
[8] = 75 nM, TNF-α for 5 hours, % of control
[9] = 150 nM, TNF-α for 5 hours, % of control
[10] = time course, 12 h/20 h after oligonucleotide treatment, TNF-α 5 hours
[11] = time course, 48 h after oligonucleotide treatment, TNF-α 5 hours
[12] = time course, 72 h after oligonucleotide treatment, TNF-α 5 hours

Row | Substance | % Cell Surface Expression (E-selectin) [1, 7] | % Cell Surface Expression (E-selectin) [1, 8] | % Cell Surface Expression (E-selectin) [1, 9] | % Cell Surface Expression (E-selectin) [1, 10] | % Cell Surface Expression (E-selectin) [1, 11] | % Cell Surface Expression (E-selectin) [1, 12] | % mRNA Expression (E-selectin) [2] | % mRNA Inhibition (E-selectin) [2] | % Cell Surface Expression (VCAM-1) ([3]; 20 nM) | % Cell Surface Expression (VCAM-1) ([3]; 50 nM) | % Cell Surface Inhibition (VCAM-1) ([3]; 50 nM) | % Cell Surface Expression (VCAM-1) ([3]; 100 nM) | % Cell Surface Inhibition (VCAM-1) ([3]; 100 nM) | % mRNA Expression (ICAM-1) [4] | % Cell Surface Expression (ICAM-1) ([5]; 20 nM) | % Cell Surface Expression (ICAM-1) ([5]; 50 nM) | % Cell Surface Expression (ICAM-1) ([5]; 100 nM) | % Cell Surface Inhibition (ICAM-1) ([5]; 100 nM) | % mRNA Expression (VCAM-1) [6] | % Cell Surface Inhibition (E-selectin) ([1]; 25 nM, TNF-α for 5 hours) | also measured
1 | ToCoAsGsTsAsAsTsAsGsCsCsCoCoAoCoAoToGoG [ISIS 17552, reference compound] | 134% | 116% | 116% | 113% | 116% | 111% | 92% | 8% | 111% | 97% | 3% | 85% | 15% | 101% | 102% | 100% | 98% | 2% | 111% | – | effect on E-selectin induction ([1]; dose response, HMVEC): little to no effect
2 | ToCoCoCoGoCsCsTsGsTsGsAsCsAsToGoCoAoToT [ISIS 12854] | 37% | 26% | 23% | 58% | 23% | 24% | 22% | 78% | 46% | 37% | 63% | 28% | 72% | 78% | 80% | 62% | 57% | 43% | 35% | 63% | % Cell Surface Inhibition (E-selectin) ([1]; 75 nM, TNF-α for 5 hours): 74%; % Cell Surface Inhibition (E-selectin) ([1]; 150 nM, TNF-α for 5 hours): 77%; Maximal inhibition of E-selectin induction ([1]; dose response, HMVEC): approximately 80%; time of maximal inhibition of E-selectin induction [1]: 48 h; % Cell Surface Inhibition (E-selectin) [1, 10]: 42%; % Cell Surface Inhibition (E-selectin) [1, 11]: 77%; % Cell Surface Inhibition (E-selectin) [1, 12]: 76%; % Cell Surface Inhibition (VCAM-1) ([3]; 20 nM): 54%; Maximum inhibition of induction of VCAM-1 by TNF-α [3]: greater than 70%; % mRNA Inhibition (ICAM-1) [4]: 22%; % Cell Surface Inhibition (ICAM-1) ([5]; 20 nM): 20%; % Cell Surface Inhibition (ICAM-1) ([5]; 50 nM): 38%; maximal inhibition of induction of ICAM-1 by TNF-α [5]: greater than 40%; % mRNA Inhibition (VCAM-1) [6]: 65%
3 | ToCoCsGsTsCsAsTsCsGsCsTsCoCoToCoAoGoGoG [ISIS 15168] | 72% | 47% | 41% | 87% | 42% | 42% | 13% | 87% | 70% | 51% | 49% | 44% | 56% | 73% | 81% | 62% | 54% | 46% | 29% | 28% | % Cell Surface Inhibition (E-selectin) ([1]; 75 nM, TNF-α for 5 hours): 53%; % Cell Surface Inhibition (E-selectin) ([1]; 150 nM, TNF-α for 5 hours): 59%; Maximal inhibition of E-selectin induction ([1]; dose response, HMVEC): ~60%; time of maximal inhibition of E-selectin induction [1]: 48 h; % Cell Surface Inhibition (E-selectin) [1, 10]: 13%; % Cell Surface Inhibition (E-selectin) [1, 11]: 58%; % Cell Surface Inhibition (E-selectin) [1, 12]: 58%; % Cell Surface Inhibition (VCAM-1) ([3]; 20 nM): 30%; Maximum inhibition of induction of VCAM-1 by TNF-α [3]: greater than 50%; % mRNA Inhibition (ICAM-1) [4]: 27%; % Cell Surface Inhibition (ICAM-1) ([5]; 20 nM): 19%; % Cell Surface Inhibition (ICAM-1) ([5]; 50 nM): 38%; maximal inhibition of induction of ICAM-1 by TNF-α [5]: greater than 40%; % mRNA Inhibition (VCAM-1) [6]: 71%

From patent US6114517A, “Methods of modulating tumor necrosis factor α-induced expression of cell adhesion molecules” (Isis Pharmaceuticals Inc., priority 1998, dated 2000)
